Values joined by “and” are separate entries in the source; they are usually repeats but may differ in a detail not shown here. Equal values may be shown once. “Also recorded” adds a separate entry of the source.
Legend:
[1] = test system: C57BL6 female mice; assay: Cumulus oocyte complex yield after PMSG superovulation, doxorubicin with or without NMN; assay type: in vivo; settings: per mouse, single dose doxorubicin 10 mg/kg i.p. and/or NMN 2 g/L drinking water, 2 months post doxorubicin
Protocol: To assess oocyte yield, and mice were hormonally stimulated to superovulated by intraperitoneal injection with 7.5 IU/mL of Pregnant Mare's Serum Gonadotropin (PMSG) (Folligon; Intervet, Boxmeer, Holland) to stimulate follicular growth. After 44-46 hours, ovaries were collected in HEPES-buffered minimum essential medium (aMEM; […] Sigma Aldrich, St. Louis, Mo.) and 100 μM IBMX (Sigma Aldrich). […] NMN was delivered through addition to drinking water at 2 g/L, for a final dose of approximately 165 mg/kg. Administration of NMN began one day prior to doxorubicin administration. […] Ovaries were then punctured to release MI oocytes. In a separate cohort of animals, the same experiment was repeated using animals treated with the platinum based chemotherapy drug cisplatin. In FIG. 6 and Table 1, numbers of cumulus oocyte complexes are listed.

[2] = test system: offspring of C57BL6 females; assay: Offspring of NMN treated females: development and glucose tolerance; assay type: in vivo, mice; settings: offspring from NMN treated versus untreated females
Text: FIG. 5. Offspring from NMN treated females, or non-NMN treated females, were maintained on a chow diet or subjected to feeding of a high fat diet (HFD) from 8 weeks of age. A) is a graph of body weights of animals until 23 weeks of age. B) is a graph of fat mass of animals after 7 weeks of HFD feeding. C) is a graph of glucose tolerance test in animals at 7 weeks after chow or HFD feeding (2 g/kg, 6 hr fast). D) is a graph of area under the curve for glucose tolerance tests. Each group represents offspring from at least 7 different females. Error bars are SD.
To determine whether NMN treatment could improve overall, functional fertility, we conducted a breeding trial in C57BL6 mice. Both pregnancy success rates and litter size (FIG. 4A) were improved in animals that received NMN, further confirming the importance of this mechanism to female fertility. Offspring from females that received NMN treatment developed at a similar rate to offspring from untreated females, even after challenging with high fat feeding (FIG. 5A and 5B).

[3] = test system: C57BL6 and SwissTacAusb female mice; assay: Oocyte yield in aged mice treated with NMN; assay type: in vivo; settings: 15 month-old mice, NMN drinking water 2 g/L, 4 weeks, versus untreated
Protocol: To assess oocyte yield, and mice were hormonally stimulated to superovulated by intraperitoneal injection with 7.5 IU/mL of Pregnant Mare's Serum Gonadotropin (PMSG) (Folligon; Intervet, Boxmeer, Holland) to stimulate follicular growth. After 44-46 hours, ovaries were collected in HEPES-buffered minimum essential medium (aMEM; Gibco Life Technologies, Grand Island, N.Y.) supplemented with 50 µM of 3-isobuty-1-methylxanthine (IBMX) (Sigma aldrich, NSW, AU) (M2 medium) to maintain meitotic arrest at germinal vesicle stage. Cumulus oocyte complexes (COCs) were isolated from preovulatory follicles using a 27-gauge needle and collected using flame-pulled borosilicate Pasteur pipettes in M2 medium supplemented with 3 mg/ml bovine serum albumin (BSA; Sigma Aldrich, St. Louis, Mo.) and 100 μM IBMX (Sigma Aldrich). […]
Systemic treatment with the NAD^+ precursor nicotinamide mononucleotide (NMN) increases intracellular NAD^+ levels, and we hypothesised that NMN treatment could restore the activity of SIRT2 to stabilise BubR1 and maintain oocyte reserve and competence into later ages. […] Animals were super-ovulated, and oocyte yield was assessed. […]

[4] = test system: oocytes; assay: Meiotic progression (GVBD, PBE) of harvested oocytes, cisplatin with or without NMN; assay type: in vivo, mice; settings: cisplatin and/or NMN
Protocol: Once harvested from ovaries, oocytes were stored in IBMX media to prevent progression into meiosis. Once released from IBMX, meiotic progression was assessed by the proportions of oocytes achieving germinal vesicle breakdown (GVBD) for meiosis I, and polar body extrusion (PBE) for meiosis II, with results shown in FIGS. 7 and 8 and Tables 2 and 3.
Again, as in Example 2 above, the oocytes which were harvested from these studies were allowed to progress down meiosis, in order to assess meiotic progression rates (FIGS. 16 and 17 and Table 7 and 8).

[5] = test system: oocytes / blastocysts; assay: IVF of oocytes from 8 month old NMN treated mice: blastocyst formation and inner cell mass; assay type: in vivo
Protocol: In addition, the length of treatment with NAD raising compounds (e.g. NMN) positively correlates with improved fertility. Eight month old ex-breeder C57BL6 female mice, which are at an age of declining natural fertility, were treated with NMN through addition to drinking water (2 g/L) for 48 hours, 1 week, 2 weeks, and 4 weeks (6 per group). Animals were then treated with PMSG and then hCG to promote oocyte maturation and ovulation. MII stage oocytes were collected from the oviduct, and fertilized in vitro. Oocytes were then cultured into blastocysts for the next 6 days, at which point these blastocysts were subjected to differential staining to assess blastocyst cell number in either the inner cell mass or the trophectoderm. Inner cell mass cell number is accepted as an important predictor of implantation success rates.
This was measured through performing IVF in oocytes obtained from 8 month old C57BL6 ex-breeder female mice, which were assigned to the following 4 groups (6 per group) . . . • Daily oral gavage, saline control, normal drinking water • Daily oral gavage, 10 mg NMN in saline, normal drinking water • No gavage, normal (control) drinking water • No gavage, NMN in drinking water (2 g/L)
These animals were at an age at which fertility normally declines in this species. Animals were maintained on each of the above treatments for 10 days. Animals were then treated with PMSG and then hCG to promote oocyte maturation and ovulation. MII stage oocytes were collected from the oviduct, and fertilized in vitro. Oocytes were then cultured into blastocysts for the next 6 days, and blastocyst formation rates were assessed. Results at days 5 and six are shown in FIGS. 38 and 39, respectively. Blastocyst formation and hatching were assessed as indicators of developmental competence. Blastocyst formation is a clinically relevant outcome: during clinical IVF, blastocyst stage and hatching blastocyst stage embryos are preferentially transferred over earlier stage embryos into a person wishing to obtain a pregnancy.

Q: For `NC(=O)c1ccc[n+]([C@@H]2O[C@H](COP(=O)([O-])O)[C@@H](O)[C@H]2O)c1` [NMN, nicotinamide mononucleotide], which “Numbers of cumulus oocyte complexes released from mice” value [1] is on record?
A: able to protect against doxorubicin induced oocyte loss and 33 and 17 and 15 and 10 and 18 and 13

Q: What about the “Glucose tolerance tests in offspring” value [2] of the same molecule?
A: no change

Q: What about the “COC (oocyte) yield in aged females” value [3] of the same molecule?
A: more than doubled; also recorded: dramatically increased

Q: And the “Proportion of harvested oocytes achieving germinal vesicle breakdown” value ([4]; 1 h after release from IBMX)?
A: 45 % of total

Q: What about the “Proportion of harvested oocytes achieving germinal vesicle breakdown” value ([4]; 2 h after release from IBMX) of the same molecule?
A: 83 % of total

Q: And the “Proportion of harvested oocytes achieving polar body extrusion” value ([4]; 14 hr following completion of GVBD)?
A: 48 % of total

Q: What about the “Proportion of harvested oocytes achieving polar body extrusion” value ([4]; 16 hr following completion of GVBD) of the same molecule?
A: 60 % of total

Q: And the “Proportion of harvested oocytes achieving polar body extrusion” value ([4]; 20 hr following completion of GVBD)?
A: 91 % of total

Q: What about the “Efficacy on blastocyst formation after IVF: drinking water versus single daily oral gavage” value ([5]; 8 month old C57BL6, NMN 2 g/L drinking water versus 10 mg daily gavage, 10 days) of the same molecule?
A: better efficacy

Q: What about the “Efficacy versus length of NMN administration (inner cell mass cell number of blastocysts)” value ([5]; NMN 2 g/L drinking water for 48 hours, 1, 2, 4 weeks) of the same molecule?
A: time dependent increase in efficacy

Q: What about the “Ability of oocytes to form blastocysts following fertilisation in vitro” value ([5]; oocytes from NMN treated versus untreated mice) of the same molecule?
A: enhanced ability to form blastocysts
